Experimental data taken from paper PMC9936582, “Sulfamate Acetamides as Self-Immolative Electrophiles for Covalent Ligand-Directed Release Chemistry” (Journal of the American Chemical Society, 2023).

Test system: Mino cells
Test: Competitive pull-down proteomics with ibrutinib alkyne probe in Mino cells
Type: cell-based, human
Conditions: 1 µM compound 1 h
Description: (10 μM). This was followed by a reaction with biotin-azide using CuAAC, enrichment of the labeled proteins, and their quantification by tryptic digestion and LC/MS/MS analysis.
The samples were then precipitated with methanol: chloroform (1 mL of methanol, 250 μL of chloroform, and 750 μL of water), washed with 1 mL of methanol, and air-dried. The samples were solubilized and bound to streptavidin agarose beads in PBS for 3 h at 25 °C. The beads were washed, centrifuged, and resuspended in Tris 50 mM pH 8 and transferred to a clean Eppendorf tube. After this, the bound proteins were eluted by boiling with 5% SDS then reduced with DTT, alkylated with iodoacetamide, and digested with trypsin. The samples were run on LC/MS/MS. The detailed procedure is available in the Supplementary Information. The mass spectrometry proteomics data have been deposited to the ProteomeXchange Consortium via the PRIDE[67] partner repository with the dataset identifiers PXD038301 and PXD038375.
400 µL of 0.1% IGEPAL/PBS were added, and the beads were washed 3 times with 0.1% IGEPAL/PBS, 3 times PBS and 3 times water. The peptides were eluted by incubation with 200 µL of 50% acetonitrile + 0.1% TFA for 5 min, followed by two more portions of 100 µL of 50% acetonitrile + 0.1% TFA. The samples were dried by speedvac, and further purified using Oasis desalting columns (Waters), after which they were dried and run on the instrument.
Pull-down samples preparation […]
incubation with 10 μM “probe 4” for another hour. The samples were prepared in quadruplicates. The cells were washed with cold PBS, from the flasks and frozen. Then, each sample was lysed in 200 μL of […]
The protein in the supernatant was quantified using BCA. For each sample, 250 μL of 1.7 mg/mL was prepared. At this point, 5 μL of 5 mM biotin azide and 9 μL of 100 mM CuSO4/THPTA complex were added. The click reaction was initiated by the addition of 7.5 μL of 150 mM sodium ascorbate, and the samples are incubated at room temperature for 1 h. The samples were then precipitated with methanol/chloroform (1 mL methanol, 250 μL chloroform, 750 μL water), washed with 1 mL of methanol, and air-dried. […]
and heated to 95 °C for 5 min. The samples were then diluted to 1.5 mL with PBS, and 50 μL of streptavidin agarose beads, prewashed with 0.2% SDS in PBS, was added, followed by 3 h incubation at room temperature. Following the incubation, the beads were centrifuged at 2000g for 2 min and washed four times with the following buffers (4 mL in each wash): 2% SDS; 0.1% sodium deoxycholate, 1% Triton X-100, 0.5 M NaCl, 1 mM EDTA, 50 mM HEPES pH = 7.5; 0.25 M NaCl, 0.5% IGEPAL, 0.5% sodium deoxycholate, 1 mM EDTA, 10 mM Tris pH = 8.1; 50 mM Tris pH = 7.4, 50 mM NaCl. […]
with heating to 95 °C for 6 min and occasional vortexing. Finally, the beads were spun down (2 min 2000g) and 80 μL of supernatant was removed to separate tubes. […]
had cooled, 4 μL of iodoacetamide (0.2 M) were added, and the samples were incubated in the dark for 40 min at room temperature. […]
samples were diluted 6-fold with 90% methanol + 50 mM ammonium bicarbonate. The samples were then […]
loaded on S-trap micro columns (Protify), and the columns were washed three times with 150 μL of 90% methanol + 50 mM ammonium bicarbonate. Then, 20 μL of 0.05 μg/μL of trypsin in 50 mM ammonium bicarbonate was added to the columns and the samples were incubated at 47 °C for 90 min. Then, 40 μL of 50 mM ammonium bicarbonate was added, followed by centrifugation and addition of 1 μL of 0.5 μg/μL trypsin to the eluate, which was incubated at 37 °C overnight. The column itself was then eluted using 40 μL of 0.2% formic acid and 40 μL 0.2% formic acid in 50% acetonitrile into a separate tube, which was kept at 4 °C. The two eluates were then combined and evaporated. The samples were further desalted using […]

CNS(=O)(=O)OCC(=O)N1CCC[C@@H](n2nc(-c3ccc(Oc4ccccc4)cc3)c3c(N)ncnc32)C1 [3c]
Log2(Fold Change) (4F2_HUMAN): -0.003946 | Log2(Fold Change) (AATM_HUMAN): 0.8443 | Log2(Fold Change) (ACSF3_HUMAN): -0.02243 | Log2(Fold Change) (AHNK_HUMAN): 0.1794 | Log2(Fold Change) (ALG1_HUMAN): 0.4128 | Log2(Fold Change) (ANXA1_HUMAN): -1.116 | Log2(Fold Change) (APEX1_HUMAN): 0.3544 | Log2(Fold Change) (ARP3_HUMAN;ARP3B_HUMAN;ARP3C_HUMAN): 0.7666 | Log2(Fold Change) (AT1A1_HUMAN;AT1A2_HUMAN;AT1A4_HUMAN;ATP4A_HUMAN;AT12A_HUMAN): 0.2874 | Log2(Fold Change) (ATP5H_HUMAN): 0.2249 | Log2(Fold Change) (ATPK_HUMAN): 0.3336 | Log2(Fold Change) (ATPO_HUMAN): 1.122 | Log2(Fold Change) (ATX10_HUMAN): 1.148 | Log2(Fold Change) (BST2_HUMAN): 1.515 | Log2(Fold Change) (BZW1_HUMAN): 1.5907 | Log2(Fold Change) (C1TM_HUMAN): 0.2312 | Log2(Fold Change) (CALL5_HUMAN): -0.3562 | Log2(Fold Change) (CD20_HUMAN): 0.973 | Log2(Fold Change) (CD38_HUMAN): 0.2424 | Log2(Fold Change) (CLCA_HUMAN): 0.2558 | Log2(Fold Change) (CLH1_HUMAN;CLH2_HUMAN): -0.3445 | Log2(Fold Change) (COX2_HUMAN): 0.13 | Log2(Fold Change) (CRERF_HUMAN): -0.08019 | Log2(Fold Change) (DD19B_HUMAN;DD19A_HUMAN): 0.602 | Log2(Fold Change) (DDX3X_HUMAN;DDX3Y_HUMAN;DDX4_HUMAN): 0.1847 | Log2(Fold Change) (DNJC7_HUMAN): -0.02484 | Log2(Fold Change) (DSC1_HUMAN): -0.8463 | Log2(Fold Change) (EF1B_HUMAN): -0.1869 | Log2(Fold Change) (EPIPL_HUMAN): -1.263 | Log2(Fold Change) (FPPS_HUMAN): -0.1485 | Log2(Fold Change) (GCR_HUMAN): -0.05313 | Log2(Fold Change) (GLYM_HUMAN;GLYC_HUMAN): 0.5085 | Log2(Fold Change) (GSDMA_HUMAN): -0.7475 | Log2(Fold Change) (HMCS1_HUMAN): 0.08713 | Log2(Fold Change) (HXK2_HUMAN;HXK3_HUMAN): 0.7187 | Log2(Fold Change) (IF4A1_HUMAN): -0.255 | Log2(Fold Change) (IF4A3_HUMAN): 1.002 | Log2(Fold Change) (IF4H_HUMAN): 0.7933 | Log2(Fold Change) (IGLL5_HUMAN;IGL1_HUMAN;IGLC1_HUMAN): -1.242 | Log2(Fold Change) (LAPM5_HUMAN): 0.4417 | Log2(Fold Change) (LAT1_HUMAN): -0.2915 | Log2(Fold Change) (LMNA_HUMAN): 0.31 | Log2(Fold Change) (MATR3_HUMAN): 0.6026 | Log2(Fold Change) (MBB1A_HUMAN): 0.2625 | Log2(Fold Change) (MCCA_HUMAN): -0.03232 | Log2(Fold Change) (MIC19_HUMAN): -0.1615 | Log2(Fold Change) (MP2K7_HUMAN): 1.332 | Log2(Fold Change) (NCEH1_HUMAN): 0.9366 | Log2(Fold Change) (NT5D1_HUMAN): 0.9214 | Log2(Fold Change) (NUCL_HUMAN): 0.1005 | Log2(Fold Change) (OTUB1_HUMAN): -0.08587 | Log2(Fold Change) (P121C_HUMAN;P121A_HUMAN): 0.1409 | Log2(Fold Change) (PARK7_HUMAN): 0.4175 | Log2(Fold Change) (PCKGM_HUMAN): -0.3825 | Log2(Fold Change) (PEBP1_HUMAN): 0.1182 | Log2(Fold Change) (PEPL_HUMAN): -0.4806 | Log2(Fold Change) (PFKAL_HUMAN): -0.8784 | Log2(Fold Change) (PGK1_HUMAN;PGK2_HUMAN): 0.09163 | Log2(Fold Change) (PIP_HUMAN): -1.053 | Log2(Fold Change) (PLAK_HUMAN;CTNB1_HUMAN): -0.3765 | Log2(Fold Change) (POF1B_HUMAN): -0.7349 | Log2(Fold Change) (PSA3_HUMAN): 0.7265 | Log2(Fold Change) (PSB8_HUMAN): 0.6836 | Log2(Fold Change) (RAB1A_HUMAN;RAB1B_HUMAN;RAB1C_HUMAN): 0.7505 | Log2(Fold Change) (RANG_HUMAN;IPKB_HUMAN): -0.3363 | Log2(Fold Change) (RAP1B_HUMAN;RAP1A_HUMAN;RP1BL_HUMAN;RAB3D_HUMAN): -0.2646 | Log2(Fold Change) (RFTN1_HUMAN): 0.04464 | Log2(Fold Change) (RL13A_HUMAN;R13P3_HUMAN): 0.8429 | Log2(Fold Change) (RL18_HUMAN): 0.1972 | Log2(Fold Change) (RLA1_HUMAN): -0.4322 | Log2(Fold Change) (RN3P2_HUMAN): -0.1916 | Log2(Fold Change) (RS28_HUMAN): 1.548 | Log2(Fold Change) (RTN4_HUMAN): 0.4072 | Log2(Fold Change) (RUVB2_HUMAN): 0.8939 | Log2(Fold Change) (S38A1_HUMAN): 1.036 | Log2(Fold Change) (S61A1_HUMAN;S61A2_HUMAN): 1.044 | Log2(Fold Change) (SAE2_HUMAN): 0.8904 | Log2(Fold Change) (SATT_HUMAN): 0.02917 | Log2(Fold Change) (SCRB1_HUMAN): 0.4543 | Log2(Fold Change) (SIAT1_HUMAN): 1.583 | Log2(Fold Change) (SO4A1_HUMAN): 1.603 | Log2(Fold Change) (SPB4_HUMAN): 1.011 | Log2(Fold Change) (SPB12_HUMAN): 0.1706 | Log2(Fold Change) (SSDH_HUMAN): 0.9154 | Log2(Fold Change) (SUCB1_HUMAN): 0.5342 | Log2(Fold Change) (TAP1_HUMAN): -1.372 | Log2(Fold Change) (TAP2_HUMAN;ABCB8_HUMAN;ABCBA_HUMAN): -0.08664 | Log2(Fold Change) (TBB2B_HUMAN;TBB2A_HUMAN): -0.7631 | Log2(Fold Change) (TSN_HUMAN): 0.3727 | Log2(Fold Change) (TX264_HUMAN): 0.3312 | Log2(Fold Change) (UB2V2_HUMAN;UB2V1_HUMAN): 1.079 | Log2(Fold Change) (UBP5_HUMAN): -0.3855 | Log2(Fold Change) (UBP14_HUMAN): 1.084 | Log2(Fold Change) (URP2_HUMAN): 1.649 | Log2(Fold Change) (USMG5_HUMAN): 0.5625 | Log2(Fold Change) (VDAC1_HUMAN): 0.3406 | Log2(Fold Change) (VEZA_HUMAN): 1.904 | Log2(Fold Change) (XPO2_HUMAN): 0.4199 | Log2(Fold Change) (XPO5_HUMAN): -0.04737 | Log2(Fold Change) (ZDHC8_HUMAN): -1.5861
